Experimental data as given in the kinase profiling compilation of Christmann-Franck et al. (2016).

Legend:
Assay in all cases: KINOMEscan competition binding
Details in all cases: compound 10.0 µM
AKT1 (human) = AKT1 (human) (UniProt P31749)
AKT3 (human) = AKT3 (human) (UniProt Q9Y243)
CDC42BPA (human) = CDC42BPA (human) (UniProt Q5VT25)
CDC42BPG (human) = CDC42BPG (human) (UniProt Q6DT37)
CDK11B (human) = CDK11B (human) (UniProt P21127)
CDK14 (human) = CDK14 (human) (UniProt O94921)
CSF1R (human) = CSF1R (human) (UniProt P07333)
DYRK1B (human) = DYRK1B (human) (UniProt Q9Y463)
[1] = test system: EGFR (human), P00533 [752-759 del]
EPHA8 (human) = EPHA8 (human) (UniProt P29322)
[2] = test system: FLT3 (human), P36888 [R834Q]
LYN (human) = LYN (human) (UniProt P07948)
MAP2K2 (human) = MAP2K2 (human) (UniProt P36507)
MAP2K3 (human) = MAP2K3 (human) (UniProt P46734)
MAP2K4 (human) = MAP2K4 (human) (UniProt P45985)
MAP4K3 (human) = MAP4K3 (human) (UniProt Q8IVH8)
MAPK1 (human) = MAPK1 (human) (UniProt P28482)
MAPK10 (human) = MAPK10 (human) (UniProt P53779)
MAPK15 (human) = MAPK15 (human) (UniProt Q8TD08)
[3] = test system: MET (human), P08581 [Y1235D]
MKNK2 (human) = MKNK2 (human) (UniProt Q9HBH9)
NLK (human) = NLK (human) (UniProt Q9UBE8)
PAK3 (human) = PAK3 (human) (UniProt O75914)
PAK6 (human) = PAK6 (human) (UniProt Q9NQU5)
PDGFRB (human) = PDGFRB (human) (UniProt P09619)
PHKG1 (human) = PHKG1 (human) (UniProt Q16816)
PIP5K1A (human) = PIP5K1A (human) (UniProt Q99755)
PRKCE (human) = PRKCE (human) (UniProt Q02156)
PRKD3 (human) = PRKD3 (human) (UniProt O94806)
PTK2 (human) = PTK2 (human) (UniProt Q05397)
RIOK1 (human) = RIOK1 (human) (UniProt Q9BRS2)
RPS6KA2 KD2 (human) = RPS6KA2 KD2 (human) (UniProt Q15349)
SBK1 (human) = SBK1 (human) (UniProt Q52WX2)
SIK1 (human) = SIK1 (human) (UniProt P57059)
SIK3 (human) = SIK3 (human) (UniProt Q9Y2K2)
SRPK3 (human) = SRPK3 (human) (UniProt Q9UPE1)
TTK (human) = TTK (human) (UniProt P33981)
[4] = target: TYK2 JH2 pseudokinase (human) (UniProt P29597)
VRK2 (human) = VRK2 (human) (UniProt Q86Y07)
YSK4 (human) = YSK4 (human) (UniProt Q56UN5)

Sequence of CSF1R (human) (P07333 whole entry, looked up): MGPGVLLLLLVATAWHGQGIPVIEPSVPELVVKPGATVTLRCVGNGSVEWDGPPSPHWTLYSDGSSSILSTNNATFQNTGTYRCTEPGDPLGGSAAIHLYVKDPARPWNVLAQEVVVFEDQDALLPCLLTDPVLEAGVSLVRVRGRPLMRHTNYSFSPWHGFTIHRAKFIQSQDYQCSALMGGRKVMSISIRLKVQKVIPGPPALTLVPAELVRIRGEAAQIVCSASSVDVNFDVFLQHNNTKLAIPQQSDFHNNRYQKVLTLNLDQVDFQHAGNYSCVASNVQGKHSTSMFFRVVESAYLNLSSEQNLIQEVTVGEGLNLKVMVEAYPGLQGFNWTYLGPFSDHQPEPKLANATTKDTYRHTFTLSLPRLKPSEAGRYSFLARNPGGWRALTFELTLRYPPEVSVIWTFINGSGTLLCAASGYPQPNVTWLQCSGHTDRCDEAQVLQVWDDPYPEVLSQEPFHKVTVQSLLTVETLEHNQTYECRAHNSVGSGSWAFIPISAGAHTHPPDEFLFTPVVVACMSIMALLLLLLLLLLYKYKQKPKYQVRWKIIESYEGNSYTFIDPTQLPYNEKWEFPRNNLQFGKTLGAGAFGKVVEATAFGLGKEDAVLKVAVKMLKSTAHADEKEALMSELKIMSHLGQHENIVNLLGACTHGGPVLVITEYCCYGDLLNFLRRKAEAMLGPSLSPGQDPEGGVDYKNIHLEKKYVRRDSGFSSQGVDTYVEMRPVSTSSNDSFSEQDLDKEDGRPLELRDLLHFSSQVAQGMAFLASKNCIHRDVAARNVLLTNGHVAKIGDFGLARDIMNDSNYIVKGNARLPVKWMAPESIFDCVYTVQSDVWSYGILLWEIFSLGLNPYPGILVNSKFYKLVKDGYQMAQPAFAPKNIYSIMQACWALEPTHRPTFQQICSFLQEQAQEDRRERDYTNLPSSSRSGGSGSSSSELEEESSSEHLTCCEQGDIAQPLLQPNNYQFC
Sequence of VRK2 (human) (Q86Y07 whole entry, looked up): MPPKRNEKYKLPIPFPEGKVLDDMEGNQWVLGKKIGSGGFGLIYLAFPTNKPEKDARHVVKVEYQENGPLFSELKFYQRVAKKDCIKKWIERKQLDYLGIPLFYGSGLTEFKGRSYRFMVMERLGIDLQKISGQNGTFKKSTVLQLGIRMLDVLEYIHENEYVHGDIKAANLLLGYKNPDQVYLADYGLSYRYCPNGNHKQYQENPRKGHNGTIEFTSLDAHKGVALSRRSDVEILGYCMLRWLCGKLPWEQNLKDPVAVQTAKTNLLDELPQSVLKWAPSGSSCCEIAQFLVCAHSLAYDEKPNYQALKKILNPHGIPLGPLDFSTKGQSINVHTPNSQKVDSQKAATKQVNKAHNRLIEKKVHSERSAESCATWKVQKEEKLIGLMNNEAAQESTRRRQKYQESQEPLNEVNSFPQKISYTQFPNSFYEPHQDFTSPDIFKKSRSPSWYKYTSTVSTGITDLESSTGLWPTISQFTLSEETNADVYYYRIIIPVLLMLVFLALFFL
Sequence of SIK3 (human) (Q9Y2K2 whole entry, looked up): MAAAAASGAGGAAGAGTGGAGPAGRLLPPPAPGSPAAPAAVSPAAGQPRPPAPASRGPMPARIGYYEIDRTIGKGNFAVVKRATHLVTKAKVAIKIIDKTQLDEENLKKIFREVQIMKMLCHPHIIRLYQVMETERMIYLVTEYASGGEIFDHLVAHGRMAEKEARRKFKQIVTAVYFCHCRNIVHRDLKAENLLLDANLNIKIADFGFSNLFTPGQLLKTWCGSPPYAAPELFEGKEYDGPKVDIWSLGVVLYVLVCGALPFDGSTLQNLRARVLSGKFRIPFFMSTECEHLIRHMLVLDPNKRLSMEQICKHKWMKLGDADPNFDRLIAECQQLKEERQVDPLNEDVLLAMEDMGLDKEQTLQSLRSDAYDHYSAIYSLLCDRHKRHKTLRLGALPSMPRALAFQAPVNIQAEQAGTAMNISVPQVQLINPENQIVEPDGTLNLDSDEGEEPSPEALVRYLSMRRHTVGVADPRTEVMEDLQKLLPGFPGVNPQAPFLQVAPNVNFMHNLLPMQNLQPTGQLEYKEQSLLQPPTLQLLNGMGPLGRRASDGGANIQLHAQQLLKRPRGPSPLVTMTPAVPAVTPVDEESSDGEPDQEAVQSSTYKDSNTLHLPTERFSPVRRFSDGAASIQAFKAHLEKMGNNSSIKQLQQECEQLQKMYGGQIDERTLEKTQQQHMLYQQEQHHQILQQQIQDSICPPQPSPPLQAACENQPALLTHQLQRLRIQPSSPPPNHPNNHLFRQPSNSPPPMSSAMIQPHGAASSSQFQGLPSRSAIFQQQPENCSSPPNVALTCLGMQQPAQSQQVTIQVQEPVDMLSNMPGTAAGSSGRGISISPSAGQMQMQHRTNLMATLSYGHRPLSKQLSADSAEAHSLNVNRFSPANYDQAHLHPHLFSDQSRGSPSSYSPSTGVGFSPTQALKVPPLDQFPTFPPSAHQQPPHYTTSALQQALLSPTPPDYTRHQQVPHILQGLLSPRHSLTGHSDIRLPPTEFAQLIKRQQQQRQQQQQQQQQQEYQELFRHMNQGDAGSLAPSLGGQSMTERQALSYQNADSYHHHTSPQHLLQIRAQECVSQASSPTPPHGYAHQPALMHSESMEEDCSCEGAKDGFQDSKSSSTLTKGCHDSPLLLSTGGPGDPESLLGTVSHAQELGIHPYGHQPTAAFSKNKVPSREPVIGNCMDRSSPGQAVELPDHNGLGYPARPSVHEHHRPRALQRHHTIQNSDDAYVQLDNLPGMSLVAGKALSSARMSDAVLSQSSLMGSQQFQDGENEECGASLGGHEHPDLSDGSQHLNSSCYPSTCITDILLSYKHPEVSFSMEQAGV
Sequence of MAPK10 (human) (P53779 whole entry, looked up): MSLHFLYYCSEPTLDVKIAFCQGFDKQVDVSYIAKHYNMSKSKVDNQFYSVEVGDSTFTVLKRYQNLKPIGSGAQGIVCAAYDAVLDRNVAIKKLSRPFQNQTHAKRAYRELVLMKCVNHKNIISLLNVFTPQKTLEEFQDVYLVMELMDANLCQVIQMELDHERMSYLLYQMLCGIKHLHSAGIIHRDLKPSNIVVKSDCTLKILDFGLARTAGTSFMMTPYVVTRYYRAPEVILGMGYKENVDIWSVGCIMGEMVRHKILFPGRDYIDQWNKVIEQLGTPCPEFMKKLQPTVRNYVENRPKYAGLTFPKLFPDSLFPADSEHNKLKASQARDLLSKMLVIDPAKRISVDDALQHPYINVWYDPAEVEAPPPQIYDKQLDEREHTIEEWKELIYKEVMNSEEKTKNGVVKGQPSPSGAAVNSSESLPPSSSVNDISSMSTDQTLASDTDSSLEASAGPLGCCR
Sequence of MAPK1 (human) (P28482 whole entry, looked up): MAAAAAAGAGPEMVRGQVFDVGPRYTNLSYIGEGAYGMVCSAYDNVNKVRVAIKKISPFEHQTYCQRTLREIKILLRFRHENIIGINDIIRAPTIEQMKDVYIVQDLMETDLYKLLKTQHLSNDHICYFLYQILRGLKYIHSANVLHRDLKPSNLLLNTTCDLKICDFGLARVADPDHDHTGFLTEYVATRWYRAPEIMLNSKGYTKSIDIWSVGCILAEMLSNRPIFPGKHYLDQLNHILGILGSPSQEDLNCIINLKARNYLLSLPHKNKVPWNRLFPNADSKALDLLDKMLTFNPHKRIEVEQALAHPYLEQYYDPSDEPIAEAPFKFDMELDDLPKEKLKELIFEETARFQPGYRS
Sequence of TYK2 JH2 pseudokinase (human) (P29597 whole entry, looked up): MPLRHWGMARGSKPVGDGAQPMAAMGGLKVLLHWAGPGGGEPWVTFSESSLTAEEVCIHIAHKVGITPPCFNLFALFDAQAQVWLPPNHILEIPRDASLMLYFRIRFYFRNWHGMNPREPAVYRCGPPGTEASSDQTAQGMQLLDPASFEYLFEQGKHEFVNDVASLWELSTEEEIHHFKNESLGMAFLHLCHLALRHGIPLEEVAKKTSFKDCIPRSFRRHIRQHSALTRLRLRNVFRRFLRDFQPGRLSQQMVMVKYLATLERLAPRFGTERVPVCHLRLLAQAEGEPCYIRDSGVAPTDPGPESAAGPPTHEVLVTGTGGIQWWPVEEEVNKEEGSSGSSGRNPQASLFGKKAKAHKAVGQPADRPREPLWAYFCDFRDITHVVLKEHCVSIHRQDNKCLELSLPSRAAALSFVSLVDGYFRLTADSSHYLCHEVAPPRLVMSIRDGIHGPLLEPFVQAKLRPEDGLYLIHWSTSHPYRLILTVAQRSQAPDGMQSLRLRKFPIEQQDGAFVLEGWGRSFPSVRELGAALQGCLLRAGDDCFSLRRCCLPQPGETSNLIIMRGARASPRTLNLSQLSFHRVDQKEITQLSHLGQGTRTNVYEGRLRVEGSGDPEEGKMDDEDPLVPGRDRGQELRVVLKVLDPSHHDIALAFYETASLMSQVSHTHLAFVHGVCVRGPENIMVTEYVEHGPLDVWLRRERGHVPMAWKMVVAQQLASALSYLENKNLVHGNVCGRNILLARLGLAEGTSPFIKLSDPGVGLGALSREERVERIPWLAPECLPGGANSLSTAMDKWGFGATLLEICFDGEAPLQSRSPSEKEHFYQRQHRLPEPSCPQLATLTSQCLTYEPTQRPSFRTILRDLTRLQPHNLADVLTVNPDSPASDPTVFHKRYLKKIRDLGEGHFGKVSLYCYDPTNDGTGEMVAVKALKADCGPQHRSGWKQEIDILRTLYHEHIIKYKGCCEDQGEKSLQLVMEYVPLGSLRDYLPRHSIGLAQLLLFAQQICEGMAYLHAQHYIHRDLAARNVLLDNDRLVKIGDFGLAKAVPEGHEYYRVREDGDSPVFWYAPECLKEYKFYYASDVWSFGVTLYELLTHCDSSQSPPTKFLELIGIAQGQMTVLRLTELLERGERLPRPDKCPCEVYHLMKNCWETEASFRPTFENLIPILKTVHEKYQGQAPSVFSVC

SMILES: COc1cc2ncnc(-n3nc(-c4ccccn4)nc3N)c2cc1OC
- kinase still bound, per cent of control (AKT1 (human)): 100%
- kinase still bound, per cent of control (AKT3 (human)): 100%
- kinase still bound, per cent of control (CDC42BPA (human)): 99%
- kinase still bound, per cent of control (CDC42BPG (human)): 96%
- kinase still bound, per cent of control (CDK11B (human)): 93%
- kinase still bound, per cent of control (CDK14 (human)): 62%
- kinase still bound, per cent of control (CSF1R (human)): 52%
- kinase still bound, per cent of control (DYRK1B (human)): 2%
- kinase still bound, per cent of control [1]: 58%
- kinase still bound, per cent of control (EPHA8 (human)): 59%
- kinase still bound, per cent of control [2]: 22%
- kinase still bound, per cent of control (LYN (human)): 48%
- kinase still bound, per cent of control (MAP2K2 (human)): 74%
- kinase still bound, per cent of control (MAP2K3 (human)): 27%
- kinase still bound, per cent of control (MAP2K4 (human)): 3.8%
- kinase still bound, per cent of control (MAP4K3 (human)): 53%
- kinase still bound, per cent of control (MAPK1 (human)): 56%
- kinase still bound, per cent of control (MAPK10 (human)): 1.4%
- kinase still bound, per cent of control (MAPK15 (human)): 0.55%
- kinase still bound, per cent of control [3]: 40%
- kinase still bound, per cent of control (MKNK2 (human)): 8.4%
- kinase still bound, per cent of control (NLK (human)): 6.6%
- kinase still bound, per cent of control (PAK3 (human)): 12%
- kinase still bound, per cent of control (PAK6 (human)): 55%
- kinase still bound, per cent of control (PDGFRB (human)): 3.4%
- kinase still bound, per cent of control (PHKG1 (human)): 55%
- kinase still bound, per cent of control (PIP5K1A (human)): 6.4%
- kinase still bound, per cent of control (PRKCE (human)): 65%
- kinase still bound, per cent of control (PRKD3 (human)): 42%
- kinase still bound, per cent of control (PTK2 (human)): 80%
- kinase still bound, per cent of control (RIOK1 (human)): 29%
- kinase still bound, per cent of control (RPS6KA2 KD2 (human)): 43%
- kinase still bound, per cent of control (SBK1 (human)): 100%
- kinase still bound, per cent of control (SIK1 (human)): 45%
- kinase still bound, per cent of control (SIK3 (human)): 83%
- kinase still bound, per cent of control (SRPK3 (human)): 38%
- kinase still bound, per cent of control (TTK (human)): 20%
- kinase still bound, per cent of control [4]: 0%
- kinase still bound, per cent of control (VRK2 (human)): 9.8%
- kinase still bound, per cent of control (YSK4 (human)): 0.45%
